Results on seven compounds are retold here after patent US8927571B2, “Pyrido[4,3-B]indoles and methods of use” (Medivation Technologies, Inc., priority 2009, dated 2015).

The structures appear in SMILES notation.

Test [1] has as its target human recombinant histamine H1 receptor (Homo sapiens, UniProt P35367). The experiment in a line: Histamine H1 radioligand binding assay ([3H]Pyrilamine). As to conditions: percent inhibition of specific binding of […] [3H]Pyrilamine; compounds screened at 1 μM or lower. As to the method:
To evaluate in radioligand binding assays the activity of compounds of the invention, human recombinant histamine H1 receptor expressed in Chinese hamster ovary (CHO) cells (De Backer, M. D. et al., Biochem. Biophys. Res. Comm. 197(3):1601, 1993) in a modified Tris-HCl buffer (50 mM Tris-HCl, pH 7.4, 2 mM MgCl2, 100 mM NaCl, 250 mM Sucrose) was used. Compounds of the invention were incubated with 1.2 nM [^3H]Pyrilamine for 180 min at 25° C. Non-specific binding was estimated in the presence of 1 μM pyrilamine. Receptor proteins were filtered and washed, the filters were then counted to determine [^3H]Pyrilamine specifically bound. Compounds were screened at 1 μM or lower, using 1% DMSO as vehicle. Biochemical assay results are presented as the percent inhibition of specific binding in Table 2.

In test [2] the target is T1, human recombinant histamine H2 receptor (Homo sapiens, UniProt P25021).
T1 construct: expressed in transfected cells; host or cells: Chinese hamster ovary (CHO) K1 cells
T1 sequence (P25021 whole entry): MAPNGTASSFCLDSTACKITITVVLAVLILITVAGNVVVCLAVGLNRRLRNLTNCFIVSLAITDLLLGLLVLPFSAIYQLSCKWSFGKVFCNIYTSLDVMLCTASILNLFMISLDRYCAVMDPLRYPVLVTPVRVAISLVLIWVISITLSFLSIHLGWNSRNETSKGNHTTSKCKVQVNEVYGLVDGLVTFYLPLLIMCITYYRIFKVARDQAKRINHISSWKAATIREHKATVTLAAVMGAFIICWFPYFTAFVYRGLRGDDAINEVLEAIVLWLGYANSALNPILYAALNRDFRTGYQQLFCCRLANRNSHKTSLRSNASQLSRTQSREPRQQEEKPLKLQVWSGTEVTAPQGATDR
The experiment in a line: Histamine H2 radioligand binding assay ([125I]Aminopotentidine). Particulars: percent inhibition of specific binding of 0.1 nM [125I]Aminopotentidine; compounds screened at 1 μM or lower. As to the method:
To evaluate in radioligand binding assays the activity of compounds of the invention, human recombinant histamine H2 receptor expressed in Chinese hamster ovary (CHO) K1 cells (Ruat, M., Proc. Natl. Acad. Sci. USA. 87(5):1658, 1990) in a 50 mM Phosphate buffer, pH 7.4 was used. Compounds of the invention were incubated with 0.1 nM [^125I]Aminopotentidine for 120 min at 25° C. Non-specific binding was estimated in the presence of 3 μM Tiotidine. Receptor proteins were filtered and washed, the filters were then counted to determine [^125I]Aminopotentidine specifically bound. Compounds were screened at 1 μM or lower, using 1% DMSO as vehicle. Biochemical assay results are presented as the percent inhibition of specific binding in Table 2.

Test [3] concerns the target T2, human recombinant adrenergic α1D receptor (Homo sapiens, UniProt P25100).
T2 construct: expressed in transfected cells; host or cells: human embryonic kidney (HEK-293) cells
T2 sequence (P25100 1-572): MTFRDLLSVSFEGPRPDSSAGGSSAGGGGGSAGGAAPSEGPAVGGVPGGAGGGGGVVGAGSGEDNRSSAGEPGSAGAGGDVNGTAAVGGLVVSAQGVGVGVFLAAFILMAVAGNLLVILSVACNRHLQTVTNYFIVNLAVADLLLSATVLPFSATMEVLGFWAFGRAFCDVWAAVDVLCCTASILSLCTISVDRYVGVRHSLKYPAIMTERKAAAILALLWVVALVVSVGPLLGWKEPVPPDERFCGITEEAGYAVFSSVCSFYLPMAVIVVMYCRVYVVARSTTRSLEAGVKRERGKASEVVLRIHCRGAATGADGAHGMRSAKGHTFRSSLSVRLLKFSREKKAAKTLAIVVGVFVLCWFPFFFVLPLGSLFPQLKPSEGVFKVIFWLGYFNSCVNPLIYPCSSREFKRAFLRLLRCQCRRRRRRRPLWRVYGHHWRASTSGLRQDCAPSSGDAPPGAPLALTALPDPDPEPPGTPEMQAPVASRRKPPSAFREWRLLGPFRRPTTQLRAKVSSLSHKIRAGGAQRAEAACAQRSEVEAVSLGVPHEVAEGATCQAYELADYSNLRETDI
The experiment in a line: Adrenergic α1D radioligand binding assay ([3H]Prozosin). As to conditions: 0.6 nM [3H]Prozosin, read-out: Percent Inhibition of ligand binding, Adrenergic (1 μM) α1D. As to the method:
Compounds of invention were incubated with 0.6 nM [^3H]Prozosin for 60 min at 25° C. Non-specific binding was estimated in the presence of 10 μM phentolamine. Receptor proteins were filtered and washed, the filters were then counted to determine [^3H]Prozosin specifically bound. Compounds were screened at 1 μM or lower, using 1% DMSO as vehicle. Biochemical assay results are presented as the percent inhibition of specific binding in Table 3.

For test [4], the target named is T3, human recombinant adrenergic α2B receptor (Homo sapiens, UniProt P18089).
T3 construct: expressed in transfected cells; host or cells: Chinese hamster ovary (CHO-K1) cells
T3 sequence (P18089 1-450): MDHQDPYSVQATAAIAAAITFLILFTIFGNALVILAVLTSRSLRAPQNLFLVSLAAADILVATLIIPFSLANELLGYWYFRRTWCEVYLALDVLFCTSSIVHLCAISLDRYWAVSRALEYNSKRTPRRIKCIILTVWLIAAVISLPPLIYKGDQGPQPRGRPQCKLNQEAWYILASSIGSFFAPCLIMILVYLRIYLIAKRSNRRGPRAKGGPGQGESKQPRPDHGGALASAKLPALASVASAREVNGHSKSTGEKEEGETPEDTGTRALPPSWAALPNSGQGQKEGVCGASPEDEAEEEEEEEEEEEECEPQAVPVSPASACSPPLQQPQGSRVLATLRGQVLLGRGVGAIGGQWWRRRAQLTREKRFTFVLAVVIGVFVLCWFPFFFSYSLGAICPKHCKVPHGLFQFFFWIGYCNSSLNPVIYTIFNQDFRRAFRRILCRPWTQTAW
The test is described as follows: Adrenergic α2B radioligand binding assay ([3H]Rauwolscine). Particulars: 2.5 nM [3H]Rauwolscine, read-out: Percent Inhibition of ligand binding, Adrenergic (1 μM) α2B. As to the method: To evaluate in radioligand binding assays the activity of compounds of the invention, human recombinant adrenergic α2B receptor expressed in Chinese hamster ovary (CHO-K1) cells (Uhlen S et al. Eur. J. Pharmacol. 343(1):93, 1998) in a modified Tris-HCl buffer (50 mM Tris-HCl, pH 7.4, 12.5 mM MgCl2, 1 mM EDTA, 0.2% BSA) was used. Compounds of the invention were incubated with 2.5 nM [^3H]Rauwolscine for 60 min at 25° C. Non-specific binding was estimated in the presence of 10 μM Prozosin. Receptor proteins were filtered and washed, the filters were then counted to determine [^3H]Rauwolscine specifically bound. Compounds were screened at 1 μM or lower, using 1% DMSO as vehicle. Biochemical assay results are presented as the percent inhibition of specific binding in Table 3.

Test [5] concerns the target human recombinant serotonin (5-Hydroxytryptamine) 5-HT7 receptor (Homo sapiens, UniProt P34969). The test is described as follows: Serotonin 5-HT7 radioligand binding assay ([3H]LSD). Particulars: 5.5 nM [3H]LSD, read-out: Percent Inhibition of ligand binding, Serotonin (1 μM) 5-HT7. As to the method:
Compounds of invention were incubated with 5.5 nM [^3H] Lysergic acid diethylamide (LSD) for 2 h at 25° C. […] Receptor proteins were filtered and washed, the filters were then counted to determine [^3H]LSD specifically bound. Compounds were screened at 1 μM or lower, using 1% DMSO as vehicle. Biochemical assay results are presented as the percent inhibition of specific binding in Table 4.

Chain of human recombinant serotonin (5-Hydroxytryptamine) 5-HT7 receptor (P34969 whole entry): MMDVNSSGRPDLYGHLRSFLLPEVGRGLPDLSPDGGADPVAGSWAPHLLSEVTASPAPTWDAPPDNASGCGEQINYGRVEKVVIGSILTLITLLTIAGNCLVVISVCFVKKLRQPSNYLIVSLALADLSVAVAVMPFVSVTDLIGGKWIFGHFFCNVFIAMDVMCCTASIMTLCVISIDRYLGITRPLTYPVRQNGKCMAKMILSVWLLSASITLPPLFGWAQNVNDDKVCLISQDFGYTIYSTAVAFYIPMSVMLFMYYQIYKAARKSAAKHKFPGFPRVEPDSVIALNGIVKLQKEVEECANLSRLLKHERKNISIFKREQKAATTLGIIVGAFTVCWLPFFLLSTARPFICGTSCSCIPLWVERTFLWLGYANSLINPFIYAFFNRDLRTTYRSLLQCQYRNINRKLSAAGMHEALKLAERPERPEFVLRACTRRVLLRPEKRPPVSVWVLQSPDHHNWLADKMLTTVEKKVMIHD
Chain of human recombinant histamine H1 receptor (P35367 whole entry): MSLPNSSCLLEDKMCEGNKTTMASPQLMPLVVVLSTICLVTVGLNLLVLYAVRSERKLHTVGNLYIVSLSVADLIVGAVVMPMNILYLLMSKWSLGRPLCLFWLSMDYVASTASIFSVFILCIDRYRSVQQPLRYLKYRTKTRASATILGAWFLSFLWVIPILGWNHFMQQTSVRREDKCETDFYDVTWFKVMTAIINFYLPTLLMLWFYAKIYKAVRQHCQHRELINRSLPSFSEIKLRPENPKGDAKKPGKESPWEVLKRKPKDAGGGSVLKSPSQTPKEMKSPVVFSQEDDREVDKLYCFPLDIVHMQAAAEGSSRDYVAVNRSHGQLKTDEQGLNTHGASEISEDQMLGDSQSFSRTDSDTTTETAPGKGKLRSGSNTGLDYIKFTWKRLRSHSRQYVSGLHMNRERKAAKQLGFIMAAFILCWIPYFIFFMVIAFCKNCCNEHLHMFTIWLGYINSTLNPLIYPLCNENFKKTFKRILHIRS

For the compound `Cc1ccc2c(c1)c1c(n2CC2(c3ccccc3)OCCO2)CCN(C)C1` [Compound 2, 2,8-dimethyl-5-((2-phenyl-1,3-dioxolan-2-yl)methyl)-2,3,4,5-tetrahydro-1H-pyrido[4,3-b]indole], the “Binding Data (% Inhibition) Histamine Binding H1” value in test [1] was 71%. Besides, the “Binding Data (% Inhibition) Histamine Binding H2” value in test [2] is listed as 89%. For the same compound, the inhibition (commonly the drop in the measured response relative to a control, in per cent) at 1 µM worked out at 56% in test [3] and 103% in test [4].
For the compound `Cc1ccc2c(c1)c1c(n2CC2(c3ccc(F)cc3)OCCO2)CCN(C)C1` [Compound 3, 5-((2-(4-fluorophenyl)-1,3-dioxolan-2-yl)methyl)-2,8-dimethyl-2,3,4,5-tetrahydro-1H-pyrido[4,3-b]indole], the “Binding Data (% Inhibition) Histamine Binding H1” value in test [1] is recorded as 86%. Also, the “Binding Data (% Inhibition) Histamine Binding H2” value in test [2] is 96%. Also, the figures for the inhibition at 1 µM in test [3], in test [4] and in test [5] were 60%, 106% and 99%, respectively.
As for `CN1CCc2c(c3cc(Cl)ccc3n2CC2(c3ccc(F)cc3)OCCO2)C1` [Compound 4, 8-chloro-5-((2-(4-fluorophenyl)-1,3-dioxolan-2-yl)methyl)-2-methyl-2,3,4,5-tetrahydro-1H-pyrido[4,3-b]indole], the “Binding Data (% Inhibition) Histamine Binding H1” value in test [1] turned out to be 87%. In test [2], the “Binding Data (% Inhibition) Histamine Binding H2” value was determined as 96%. Besides, the inhibition at 1 µM is 35% in test [3], 103% in test [4] and 93% in test [5].
The like results for `CN1CCc2c(c3cc(Cl)ccc3n2CC2(c3ccc(Cl)cc3)OCCO2)C1` [Compound 5, 8-chloro-5-((2-(4-chlorophenyl)-1,3-dioxolan-2-yl)methyl)-2-methyl-2,3,4,5-tetrahydro-1H-pyrido[4,3-b]indole] were, in that order, 90%, 98%, 16%, 97% and 89%.
`CCOC(=O)CC(Cn1c2c(c3cc(C)ccc31)CN(C)CC2)c1ccc(F)cc1` (stereo not drawn) [Compound 6, ethyl 4-(2,8-dimethyl-3,4-dihydro-1H-pyrido[4,3-b]indol-5(2H)-yl)-3-(4-fluorophenyl)butanoate]: the “Binding Data (% Inhibition) Histamine Binding H2” value in test [2] was found to be 86%. The inhibition at 1 µM came out at 106% in test [3], 95% in test [4] and 93% in test [5].
On to `Cc1ccc2c(c1)c1c(n2CC(CC(=O)O)c2ccc(F)cc2)CCN(C)C1` (stereo not drawn) [Compound 7, 4-(2,8-dimethyl-3,4-dihydro-1H-pyrido[4,3-b]indol-5(2H)-yl)-3-(4-fluorophenyl)butanoic acid], for which the “Binding Data (% Inhibition) Histamine Binding H1” value in test [1] is −1%. For the same compound, in test [2], the “Binding Data (% Inhibition) Histamine Binding H2” value amounted to 5%. Also, the inhibition at 1 µM in test [3] is 21%; in test [4], 12%; in test [5], 5%.
For the compound `CNC(=O)CC(Cn1c2c(c3cc(C)ccc31)CN(C)CC2)c1ccc(F)cc1` (stereo not drawn) [Compound 8, 4-(2,8-dimethyl-3,4-dihydro-1H-pyrido[4,3-b]indol-5(2H)-yl)-3-(4-fluorophenyl)-N-methylbutanamide], in test [1], the “Binding Data (% Inhibition) Histamine Binding H1” value amounted to 6%. Besides, in test [2], the “Binding Data (% Inhibition) Histamine Binding H2” value was determined as 22%. In addition, the inhibition at 1 µM in test [3] was found to be 87%; in test [4], 72%; in test [5] it was 74%.
